Data taken from patent US20030049267A1, “Systemic immune response induced by mucosal administration of lipid-tailed polypeptides without adjuvant” (INSTITUT PASTEUR, priority 1999, published 2003).
*: point of attachment. Palmitoyl = CCCCCCCCCCCCCCCC(=O)*

Columns and labels:
Assay type in all cases: in vivo
[1] = test system: P. falciparum sporozoites and hepatic schizonts; test: Immunofluorescent Ab assay (IFAT) of sera from mucosally immunized mice
Experimental: FIG. 2: Mucosal immunization elicits parasite-specific antibody responses. Sera were obtained from C3H/HeJ mice at 2 weeks post-immunization by either nasal or sub-lingual route and assayed fro recognition of (a) P. falciparum sporozoites and (B) hepatic schizonts in an IFI assay as described in Material and Methods. The data are representative of three independent experiments.
The reactivity of the sera against native proteins from various stages of the parasite were analyzed by IFAT using either (i) P. falciparum NF54 strain sporozoites (a gift of W. Eling), or (ii) sections from liver biopsies containing day 5 P. falciparum liver schizonts, or (iii) day 6 ½ P. falciparum liver schizonts obtained from a Chimpanzee. IFAT-labeled anti-human IgG, -A, -M (Diagnostic Pasteur France) or anti-mouse (Cappel. Wester Chester. PA) diluted {fraction (1/200 )} were employed as second Abs.

[2] = test system: BALB/c, C3H/HeJ, or C57BL/6 mice; test: Serum polypeptide-specific IgG ELISA after immunization with LSA3-NRII polypeptides
Source text: To investigate the ability of lipid-tailed polypeptides to induce systemic antibody responses using mucosal route, the LSA3-NRII lipid-tailed polypeptide was administrated either intranasally (I.N.) or sub-lingually (S.L.) in BALB/c, C3H/HeJ which were found previously to respond strongly to the epitopes of LSA3-NRII, or C57BL/6 mice which is poorly responsive. Negative and positive controls received respectively, the non-lipidated polypeptide administrated by IN and S.L. route, or the same lipid-tailed polypeptide injected subcutaneously (S.C.) without adjuvant.
Individual blood samples were obtained via the retro-orbital plexus by 9 to 15 days post immunization (dpi) and sera were stored at-70i C until assayed for IgG, IgA and IgM polypeptide- and parasite-specific Abs. The presence of anti-peptide antibodies in sera was determined using Enzyme-linked immunosorbent assay (ELISA) as reported previously (BenMohamed et coll., 1997). ELISA plates (Nunc, Roskilde, Denmark) were coated overnight at 4i C with 0.1 ml of LSA3-NRII or LSA1-J polypeptide solution at 3 zg/ml in PBS buffer pH 7.4 containing 3% BSA. The LSA1-J polypeptide was used as the irrelevant control of LSA3-NRII and vice versa. The plates were washed twice in PBS with 0.01% Tween-20 (PBS-T), blocked for 1 hr in PBS-T supplemented with 1% BSA prior to the addition of 0.1 ml of 1/100 dilution of mouse sera. The plates were then incubated at 37iC for one hour. After washing, the bound IgG were detected using peroxidase-conjugated goat anti-mouse IgG (Biosys, Compiegne, France) added at a 1/2000 dilution. Following incubation at 37iC for 1 hour and a final wash, 50 μl of 0.30% H2O2 containing orthophenylenediamine dihydrochloride (OPD, Sigma, St. Louis), dissolved in 0.1 M citrate buffer (pH 5.0) were added to each well at room temperature. The OD450 nm was measured using a multichannel spectrophotometer (Titertek Multiskan MCC. 340). Individual sera from all groups were diluted 1/100 and analyzed separately. Preimmune sera were used as negative controls and the results were expressed either as optical density (OD) at 450nm or as ELISA-RATIO calculated as follows: OD450 nm postimmune sera divided by OD450 nm preimmune sera. […] Isotype analysis of mouse was carried out using class specific […] Goat anti-Mouse IgA, IgM, IgGI, IgG2a, IgG2b or IgG3 HRP-Labeled (Southern Biotechnology Associates, Birmingham, USA) added at a 1/2000 dilution in PBS-T, as previously described (BenMohamed et coll., 1997).

[3] = test system: spleen and inguinal lymph node cells of C3H/HeJ mice; test: Lymphocyte proliferative assay after immunization with LSA3-NRII polypeptides
Experimental: FIG. 3: Systemic cellular immune responses are electited by presentation of lipid-tailed polypeptides to the nasal and sub-lingual mucosal surfaces. Groups of five C3H/HeJ mice were administrated with LSA3-NRII lipid-tailed (black bars) or non-lipidated polypeptide (hatched bars) either a) intranasally, b) sub-lingually, or c) subcutaneously. Two weeks after two administrations, cell suspensions from individual spleens were assayed for in vitro proliferation to the recall polypeptide. Results are expressed as Δ cpm. The background cpm, in unstimulated cells were 1548 fro intranasal, 2356 for sub-lingual and 1965 for subcutaneous routs. Bars represent the mean Δ cpm ± SD in each group. The data were similar and are representative of three separate experiments.

C3H/HeJ mice = test: Isotype analysis of polypeptide-specific serum antibodies (ELISA)
[4] = test system: ganglia sub-mandibulaires cells of BALB/c mice

Ac-LEESQVNDDIFNSLVKSVQQEQQHNVK(Pam)NH2 (Ac-LEESQVNDDIFNSLVKSVQQEQQHNVK(Palmitoyl)-NH2; SMILES CCCCCCCCCCCCCCCC(=O)NCCCC[C@H](NC(=O)[C@@H](NC(=O)[C@H](CC(N)=O)NC(=O)[C@H](Cc1c[nH]cn1)NC(=O)[C@H](CCC(N)=O)NC(=O)[C@H](CCC(N)=O)NC(=O)[C@H](CCC(=O)O)NC(=O)[C@H](CCC(N)=O)NC(=O)[C@H](CCC(N)=O)NC(=O)[C@@H](NC(=O)[C@H](CO)NC(=O)[C@H](CCCCN)NC(=O)[C@@H](NC(=O)[C@H](CC(C)C)NC(=O)[C@H](CO)NC(=O)[C@H](CC(N)=O)NC(=O)[C@H](Cc1ccccc1)NC(=O)[C@@H](NC(=O)[C@H](CC(=O)O)NC(=O)[C@H](CC(=O)O)NC(=O)[C@H](CC(N)=O)NC(=O)[C@@H](NC(=O)[C@H](CCC(N)=O)NC(=O)[C@H](CO)NC(=O)[C@H](CCC(=O)O)NC(=O)[C@H](CCC(=O)O)NC(=O)[C@H](CC(C)C)NC(C)=O)C(C)C)[C@@H](C)CC)C(C)C)C(C)C)C(C)C)C(N)=O) [LSA3-NRII lipid-tailed polypeptide, P. falciparum LSA-3 derived polypeptide with palmitoyl tail on side chain of C-terminal lysylamide]
reactivity of induced Abs with infected RBC's ([1]; different steps of intra-erythrocytic maturation): did not react
reactivity of induced Abs with intact parasite by IFAT ([1]; sera of mucosally immunized BALB/c and C3H/HeJ, sporozoite and liver stages): react with the intact parasite
antibody response ([2]; C57BL/6 strain, mucosal or subcutaneous administration): No antibody response
polypeptide-specific antibody responses in serum (ELISA) ([2]; I.N. or S.L. administration, without adjuvant, BALB/c and C3H/HeJ, serum two weeks after the second administration): high titers
mean titers of IgG antibodies, mucosal routes versus S.C. route ([2]; both mucosal routes (I.N., S.L.) compared with S.C., p<0.05): significantly higher
polypeptide specific antibody titers, sub-lingual versus intranasal groups ([2]; p<0.05 in BALB/c and p<0.01 in C3H/HeJ): significantly higher
proliferative responses against irrelevant polypeptide (LSA1-J) ([3]; Ag specificity control): lack of responses
proliferative response in inguinal lymph nodes, maximal delta cpm ([3]; S.L. (first value)): 12525 cpm
proliferative responses in spleen cells ([3]; S.L. or I.N. application, without mucosal adjuvant, recall polypeptide): strong proliferative responses
phenotype of lymphoproliferative responses ([3]; mucosal administration, abrogated by antibodies against CD4 but not by anti-CD8): CD4 phenotype
proliferative response in inguinal lymph nodes, maximal delta cpm ([3]; printed 'in S.L'): 16189 cpm
proliferative responses, mucosally versus subcutaneously immunized animals ([3]; same dose, P<0.05): higher levels
anti-peptide IgA, IgM and IgG3 (C3H/HeJ mice; all groups (I.N., S.L., S.C.)): low and similar titers
serum antibody isotype response (C3H/HeJ mice; mucosal administration (I.N., S.L.)): preferential IgG2a
serum antibody isotype response (C3H/HeJ mice; subcutaneous route): dominant IgG1

Concanavaline A [CON A, reference compound]
immune response (CFSE shift), positive control ([4]; in vitro positive control): maximum immune response

Nh2-K(NεPam)GRQYIKANSKFIGITERGRILKEPVHGV-COOH [TT-pol. (HIV)]
shift of fluorescence (CFSE), immune response ([4]; mouse, in vivo): as intense as that provided by positive CON A control
